Results from ChEMBL document CHEMBL4507291 (2021).

Experiments:
[1] = biological target: T1, Alpha-1D adrenergic receptor (Homo sapiens) (UniProt P25100); test: Inhibition of Adrenergic alpha1D at 10 µM in the Eurofins-Panlabs radioligand binding assay (Eurofins_assay_203400); settings: Compound concentration 10.0 uM
T1 sequence (whole entry): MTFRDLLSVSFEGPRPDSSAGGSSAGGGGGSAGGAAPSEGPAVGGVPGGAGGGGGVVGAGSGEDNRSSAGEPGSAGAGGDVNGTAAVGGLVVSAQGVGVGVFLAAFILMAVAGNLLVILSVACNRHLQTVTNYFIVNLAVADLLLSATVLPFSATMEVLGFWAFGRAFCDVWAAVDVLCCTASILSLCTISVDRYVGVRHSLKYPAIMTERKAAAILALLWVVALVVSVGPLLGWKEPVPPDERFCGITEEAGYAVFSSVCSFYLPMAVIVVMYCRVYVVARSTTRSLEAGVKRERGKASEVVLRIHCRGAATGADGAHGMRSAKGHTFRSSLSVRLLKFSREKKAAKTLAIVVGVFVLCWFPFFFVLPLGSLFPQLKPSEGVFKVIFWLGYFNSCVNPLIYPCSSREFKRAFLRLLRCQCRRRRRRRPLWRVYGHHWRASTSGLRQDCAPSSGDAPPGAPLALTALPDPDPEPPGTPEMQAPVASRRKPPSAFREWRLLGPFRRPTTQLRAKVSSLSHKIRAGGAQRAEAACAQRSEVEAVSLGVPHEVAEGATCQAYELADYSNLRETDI

[2] = biological target: Cholecystokinin receptor type A (Homo sapiens) (UniProt P32238); test: Inhibition of Cholecystokinin CCK1 (CCKA) at 10 µM in the Eurofins-Panlabs radioligand binding assay (Eurofins_assay_218020); settings: Compound concentration 10.0 uM
[3] = biological target: T2, Aurora kinase C (Homo sapiens) (UniProt Q9UQB9); test: AURKC (Aurora C) Kinase screen; settings: Compound concentration 1.0 uM
T2 sequence (whole entry): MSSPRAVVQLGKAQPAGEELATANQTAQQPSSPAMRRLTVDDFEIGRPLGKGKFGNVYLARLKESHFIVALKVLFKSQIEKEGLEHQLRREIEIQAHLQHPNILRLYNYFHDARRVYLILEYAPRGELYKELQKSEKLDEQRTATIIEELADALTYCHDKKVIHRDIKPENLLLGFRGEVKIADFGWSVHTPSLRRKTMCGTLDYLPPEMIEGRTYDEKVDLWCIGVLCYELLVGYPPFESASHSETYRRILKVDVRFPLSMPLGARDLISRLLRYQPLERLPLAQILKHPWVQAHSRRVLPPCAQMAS

[4] = biological target: T3, Ephrin type-A receptor 1 (Homo sapiens) (UniProt P21709); test: EPHA1 Kinase screen; settings: Compound concentration 1.0 uM
T3 sequence (whole entry): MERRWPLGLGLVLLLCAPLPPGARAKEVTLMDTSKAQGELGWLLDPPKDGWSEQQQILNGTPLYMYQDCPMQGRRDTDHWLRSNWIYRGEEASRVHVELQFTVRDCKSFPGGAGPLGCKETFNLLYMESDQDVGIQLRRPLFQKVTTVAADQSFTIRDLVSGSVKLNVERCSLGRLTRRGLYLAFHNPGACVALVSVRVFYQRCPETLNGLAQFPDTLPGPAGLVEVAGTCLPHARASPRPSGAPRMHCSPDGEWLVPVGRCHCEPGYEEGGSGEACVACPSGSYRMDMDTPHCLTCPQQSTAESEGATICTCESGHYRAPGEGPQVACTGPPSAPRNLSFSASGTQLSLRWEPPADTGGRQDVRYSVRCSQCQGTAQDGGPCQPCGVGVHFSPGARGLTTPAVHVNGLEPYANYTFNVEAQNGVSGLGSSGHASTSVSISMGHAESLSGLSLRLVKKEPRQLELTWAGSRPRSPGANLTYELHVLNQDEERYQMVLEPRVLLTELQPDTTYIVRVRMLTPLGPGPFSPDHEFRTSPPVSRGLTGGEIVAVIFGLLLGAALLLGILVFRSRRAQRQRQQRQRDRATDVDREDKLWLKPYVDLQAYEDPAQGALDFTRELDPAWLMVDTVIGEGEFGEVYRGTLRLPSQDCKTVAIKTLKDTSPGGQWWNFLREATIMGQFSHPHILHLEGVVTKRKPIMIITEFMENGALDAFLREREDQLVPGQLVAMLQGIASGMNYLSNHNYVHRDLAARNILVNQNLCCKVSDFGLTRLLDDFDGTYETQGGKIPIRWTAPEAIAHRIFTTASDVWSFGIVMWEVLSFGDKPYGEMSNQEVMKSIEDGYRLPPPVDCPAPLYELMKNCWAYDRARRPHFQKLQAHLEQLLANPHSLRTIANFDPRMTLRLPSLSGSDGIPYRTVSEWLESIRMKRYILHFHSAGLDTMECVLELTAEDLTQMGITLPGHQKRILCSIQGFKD

[5] = biological target: Vascular endothelial growth factor receptor 1 (Homo sapiens) (UniProt P17948); test: FLT1 (VEGFR1) Kinase screen; settings: Compound concentration 1.0 uM
Chain of Vascular endothelial growth factor receptor 1 (Homo sapiens) (P17948 whole entry): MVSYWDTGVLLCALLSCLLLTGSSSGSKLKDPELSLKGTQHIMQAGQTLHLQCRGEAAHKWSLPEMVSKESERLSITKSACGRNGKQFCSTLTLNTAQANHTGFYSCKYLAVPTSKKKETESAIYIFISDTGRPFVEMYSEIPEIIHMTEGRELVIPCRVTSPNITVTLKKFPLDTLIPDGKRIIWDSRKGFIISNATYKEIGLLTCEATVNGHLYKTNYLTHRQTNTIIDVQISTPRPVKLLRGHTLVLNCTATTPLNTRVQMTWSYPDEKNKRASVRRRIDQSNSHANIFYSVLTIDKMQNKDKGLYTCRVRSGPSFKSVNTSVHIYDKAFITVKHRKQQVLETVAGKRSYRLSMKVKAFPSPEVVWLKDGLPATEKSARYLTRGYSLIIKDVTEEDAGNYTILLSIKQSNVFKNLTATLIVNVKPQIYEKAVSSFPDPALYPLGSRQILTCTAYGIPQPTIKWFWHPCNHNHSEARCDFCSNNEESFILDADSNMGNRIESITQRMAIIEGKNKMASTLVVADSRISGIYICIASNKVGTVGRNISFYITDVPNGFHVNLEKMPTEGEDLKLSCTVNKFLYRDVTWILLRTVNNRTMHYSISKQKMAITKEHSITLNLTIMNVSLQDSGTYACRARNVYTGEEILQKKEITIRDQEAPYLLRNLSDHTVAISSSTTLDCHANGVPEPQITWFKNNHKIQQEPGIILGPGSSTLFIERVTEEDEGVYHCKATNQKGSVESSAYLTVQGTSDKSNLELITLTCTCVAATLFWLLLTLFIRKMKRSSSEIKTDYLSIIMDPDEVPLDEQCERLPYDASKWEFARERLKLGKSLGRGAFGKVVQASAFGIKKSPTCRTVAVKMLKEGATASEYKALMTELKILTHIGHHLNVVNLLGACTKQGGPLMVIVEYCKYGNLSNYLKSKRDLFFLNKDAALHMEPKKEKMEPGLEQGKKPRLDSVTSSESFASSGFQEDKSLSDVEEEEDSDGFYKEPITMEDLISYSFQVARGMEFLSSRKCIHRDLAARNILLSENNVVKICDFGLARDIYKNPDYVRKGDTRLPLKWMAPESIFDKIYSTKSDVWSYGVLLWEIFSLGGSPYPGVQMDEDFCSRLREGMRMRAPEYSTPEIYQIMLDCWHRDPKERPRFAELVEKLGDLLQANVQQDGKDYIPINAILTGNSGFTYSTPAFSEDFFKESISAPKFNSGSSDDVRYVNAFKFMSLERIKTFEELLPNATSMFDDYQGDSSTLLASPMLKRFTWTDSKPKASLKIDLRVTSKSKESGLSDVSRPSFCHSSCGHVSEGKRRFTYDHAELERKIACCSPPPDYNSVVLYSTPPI

[6] = test system: Hepatocyte growth factor receptor (Homo sapiens), P08581 [M1250T]; test: MET M1250T Kinase screen; settings: Compound concentration 1.0 uM
Chain of Hepatocyte growth factor receptor (Homo sapiens), P08581 [M1250T] (P08581 whole entry M1250T): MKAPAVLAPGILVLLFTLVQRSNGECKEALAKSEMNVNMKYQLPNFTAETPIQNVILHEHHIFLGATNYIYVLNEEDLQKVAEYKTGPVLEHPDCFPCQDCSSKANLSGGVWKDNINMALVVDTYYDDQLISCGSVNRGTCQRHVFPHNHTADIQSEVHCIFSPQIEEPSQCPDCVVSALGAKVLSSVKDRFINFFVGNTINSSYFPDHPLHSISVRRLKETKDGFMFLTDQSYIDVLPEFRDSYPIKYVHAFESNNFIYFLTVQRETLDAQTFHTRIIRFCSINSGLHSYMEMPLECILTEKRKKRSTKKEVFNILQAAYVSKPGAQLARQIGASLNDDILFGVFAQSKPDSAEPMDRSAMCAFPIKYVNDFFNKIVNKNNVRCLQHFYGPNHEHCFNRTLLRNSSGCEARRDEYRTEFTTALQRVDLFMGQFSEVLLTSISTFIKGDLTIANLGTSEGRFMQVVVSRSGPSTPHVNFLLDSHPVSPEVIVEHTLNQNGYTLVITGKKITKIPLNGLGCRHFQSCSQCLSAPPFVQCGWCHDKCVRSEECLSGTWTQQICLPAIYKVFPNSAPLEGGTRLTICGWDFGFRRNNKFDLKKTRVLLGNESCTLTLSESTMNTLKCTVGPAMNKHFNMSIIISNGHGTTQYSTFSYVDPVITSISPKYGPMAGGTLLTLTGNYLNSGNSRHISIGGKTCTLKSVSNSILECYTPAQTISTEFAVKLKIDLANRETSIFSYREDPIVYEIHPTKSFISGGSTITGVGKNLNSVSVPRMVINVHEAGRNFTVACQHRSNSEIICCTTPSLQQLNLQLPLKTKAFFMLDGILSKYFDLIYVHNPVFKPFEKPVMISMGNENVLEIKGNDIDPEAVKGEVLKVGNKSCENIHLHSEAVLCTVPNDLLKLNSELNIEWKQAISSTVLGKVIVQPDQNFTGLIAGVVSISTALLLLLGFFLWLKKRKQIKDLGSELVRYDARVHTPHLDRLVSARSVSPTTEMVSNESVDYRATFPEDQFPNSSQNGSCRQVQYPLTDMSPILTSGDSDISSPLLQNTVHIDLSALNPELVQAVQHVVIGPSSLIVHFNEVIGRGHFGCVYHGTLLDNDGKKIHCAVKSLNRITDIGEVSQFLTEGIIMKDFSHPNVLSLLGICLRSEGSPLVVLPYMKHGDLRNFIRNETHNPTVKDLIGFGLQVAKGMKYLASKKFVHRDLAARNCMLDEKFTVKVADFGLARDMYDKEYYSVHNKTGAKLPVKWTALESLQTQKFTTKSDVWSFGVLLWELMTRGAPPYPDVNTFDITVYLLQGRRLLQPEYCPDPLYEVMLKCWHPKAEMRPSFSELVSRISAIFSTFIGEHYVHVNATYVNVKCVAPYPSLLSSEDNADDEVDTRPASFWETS

[7] = biological target: T4, Protein kinase C epsilon type (Homo sapiens) (UniProt Q02156); test: PRKCE (PKC epsilon) Kinase screen; settings: Compound concentration 1.0 uM
T4 sequence (whole entry): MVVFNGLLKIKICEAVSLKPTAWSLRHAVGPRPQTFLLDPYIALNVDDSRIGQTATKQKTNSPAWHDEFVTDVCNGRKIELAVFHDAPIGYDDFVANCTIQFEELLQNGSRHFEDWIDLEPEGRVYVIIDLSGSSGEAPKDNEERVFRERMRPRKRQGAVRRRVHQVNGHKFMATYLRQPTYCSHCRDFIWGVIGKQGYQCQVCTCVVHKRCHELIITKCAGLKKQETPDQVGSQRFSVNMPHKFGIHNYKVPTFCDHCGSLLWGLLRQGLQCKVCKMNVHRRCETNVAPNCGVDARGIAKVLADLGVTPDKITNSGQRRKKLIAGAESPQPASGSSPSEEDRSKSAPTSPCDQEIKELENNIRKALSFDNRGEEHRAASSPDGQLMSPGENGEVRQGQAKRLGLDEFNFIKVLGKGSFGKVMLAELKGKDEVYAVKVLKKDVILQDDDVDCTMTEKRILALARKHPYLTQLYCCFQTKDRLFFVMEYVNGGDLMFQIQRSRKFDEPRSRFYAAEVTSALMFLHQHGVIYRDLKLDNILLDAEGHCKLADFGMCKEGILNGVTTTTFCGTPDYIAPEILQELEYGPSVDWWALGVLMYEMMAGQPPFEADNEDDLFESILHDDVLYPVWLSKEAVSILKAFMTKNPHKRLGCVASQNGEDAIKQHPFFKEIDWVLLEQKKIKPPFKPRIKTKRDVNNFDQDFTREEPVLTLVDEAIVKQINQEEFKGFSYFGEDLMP

[8] = biological target: SRSF protein kinase 2 (Homo sapiens) (UniProt P78362); test: SRPK2 Kinase screen; settings: Compound concentration 1.0 uM
Chain of SRSF protein kinase 2 (Homo sapiens) (P78362 whole entry, looked up): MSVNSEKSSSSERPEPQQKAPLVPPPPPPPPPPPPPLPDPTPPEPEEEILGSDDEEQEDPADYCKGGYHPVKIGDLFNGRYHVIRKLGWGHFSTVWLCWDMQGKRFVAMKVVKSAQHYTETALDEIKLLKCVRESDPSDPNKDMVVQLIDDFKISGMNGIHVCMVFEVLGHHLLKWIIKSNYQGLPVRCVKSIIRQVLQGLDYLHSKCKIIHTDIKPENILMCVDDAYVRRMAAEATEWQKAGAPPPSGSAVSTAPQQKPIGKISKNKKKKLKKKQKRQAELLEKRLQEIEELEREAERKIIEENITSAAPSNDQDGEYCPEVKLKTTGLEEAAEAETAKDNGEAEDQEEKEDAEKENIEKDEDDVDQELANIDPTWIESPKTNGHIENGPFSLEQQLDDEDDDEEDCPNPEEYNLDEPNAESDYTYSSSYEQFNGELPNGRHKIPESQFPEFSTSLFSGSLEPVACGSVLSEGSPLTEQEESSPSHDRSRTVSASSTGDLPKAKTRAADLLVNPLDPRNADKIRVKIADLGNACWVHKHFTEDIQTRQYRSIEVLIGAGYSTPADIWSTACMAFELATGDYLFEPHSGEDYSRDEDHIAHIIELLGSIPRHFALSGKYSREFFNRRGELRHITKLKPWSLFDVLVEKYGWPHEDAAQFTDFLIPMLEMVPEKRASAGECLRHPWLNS

[9] = biological target: Non-receptor tyrosine-protein kinase TYK2 (Homo sapiens) (UniProt P29597); test: TYK2 Kinase screen; settings: Compound concentration 1.0 uM
Chain of Non-receptor tyrosine-protein kinase TYK2 (Homo sapiens) (P29597 whole entry): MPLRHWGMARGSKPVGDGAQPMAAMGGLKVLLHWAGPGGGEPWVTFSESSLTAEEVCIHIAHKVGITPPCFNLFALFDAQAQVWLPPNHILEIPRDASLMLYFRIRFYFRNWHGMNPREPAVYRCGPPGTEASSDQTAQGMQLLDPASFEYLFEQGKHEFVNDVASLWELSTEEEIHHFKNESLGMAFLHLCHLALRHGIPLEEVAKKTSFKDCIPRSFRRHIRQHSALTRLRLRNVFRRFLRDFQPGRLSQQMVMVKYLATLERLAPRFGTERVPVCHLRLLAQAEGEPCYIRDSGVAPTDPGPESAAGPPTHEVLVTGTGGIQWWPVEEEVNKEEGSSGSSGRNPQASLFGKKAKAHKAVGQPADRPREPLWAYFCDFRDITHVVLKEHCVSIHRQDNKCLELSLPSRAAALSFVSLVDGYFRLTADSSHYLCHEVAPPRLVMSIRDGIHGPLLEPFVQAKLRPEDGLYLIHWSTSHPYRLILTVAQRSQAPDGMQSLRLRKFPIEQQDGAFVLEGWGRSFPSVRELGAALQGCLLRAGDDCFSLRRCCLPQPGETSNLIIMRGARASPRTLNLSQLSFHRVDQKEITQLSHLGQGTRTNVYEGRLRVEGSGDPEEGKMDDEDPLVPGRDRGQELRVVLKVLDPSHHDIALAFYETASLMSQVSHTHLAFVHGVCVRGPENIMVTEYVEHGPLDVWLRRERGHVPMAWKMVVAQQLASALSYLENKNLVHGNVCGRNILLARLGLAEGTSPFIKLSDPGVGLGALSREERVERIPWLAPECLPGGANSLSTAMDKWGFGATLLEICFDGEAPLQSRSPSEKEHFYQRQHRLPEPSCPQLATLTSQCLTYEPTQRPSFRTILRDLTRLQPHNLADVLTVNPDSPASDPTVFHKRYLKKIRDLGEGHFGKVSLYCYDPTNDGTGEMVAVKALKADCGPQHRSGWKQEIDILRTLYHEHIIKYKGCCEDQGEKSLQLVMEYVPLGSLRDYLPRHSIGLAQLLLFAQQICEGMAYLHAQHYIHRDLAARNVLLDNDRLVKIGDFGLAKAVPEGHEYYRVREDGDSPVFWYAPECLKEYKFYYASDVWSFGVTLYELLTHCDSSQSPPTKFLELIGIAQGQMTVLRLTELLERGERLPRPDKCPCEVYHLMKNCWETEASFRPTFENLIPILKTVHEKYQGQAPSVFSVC

Caspase-9 (Homo sapiens) = Caspase-9 (Homo sapiens) (UniProt P55211); test: Peptidase, CASP9 (Caspase 9) Eurofins-Panlabs enzyme assay; parameters: substrate with concentration; settings: Compound concentration 10.0 uM
Chain of Caspase-9 (Homo sapiens) (P55211 1-315 limits assumed): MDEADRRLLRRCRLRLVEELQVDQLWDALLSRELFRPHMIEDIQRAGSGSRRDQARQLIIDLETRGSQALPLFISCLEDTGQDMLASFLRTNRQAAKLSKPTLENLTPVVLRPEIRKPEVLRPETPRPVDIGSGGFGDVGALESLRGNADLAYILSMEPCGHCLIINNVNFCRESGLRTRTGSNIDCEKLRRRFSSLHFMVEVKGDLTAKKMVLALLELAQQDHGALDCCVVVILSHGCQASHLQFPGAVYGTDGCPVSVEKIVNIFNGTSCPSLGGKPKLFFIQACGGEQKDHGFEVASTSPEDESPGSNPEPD
Chain of Caspase-9 (Homo sapiens) (P55211 331-416 limits assumed): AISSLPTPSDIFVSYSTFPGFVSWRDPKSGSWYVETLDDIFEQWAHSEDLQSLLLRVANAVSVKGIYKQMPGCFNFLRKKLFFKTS

Measured: inhibition

C[C@@H]1CN(c2cc(-c3n[nH]c4ccc(OC5(C)CC5)cc34)ncn2)C[C@H](C)O1 [MLi-2]
inactive: [1] 1% | [2] -4% | [3] 1.85% | [4] 7.77% | [5] -1.02% | [6] 2.2% | [7] 4.4% | [8] 0.838% | [9] 1.17% | Caspase-9 (Homo sapiens) 5%
